Laboratory results from patent US20130338155A1, “METHOD FOR TREATING INFECTIONS” (SYNTA PHARMACEUTICALS CORP., priority 2006, published 2013).

Tests used:
[1] = system: Hsp90 protein; experiment: Malachite Green Assay of ATPase activity of Hsp90 protein; assay type: biochemical; details: 37° C. for 4 hours, FIG. 1
Description: Hsp90 protein was obtained from Stressgen (Cat#SPP-770). Assay buffer: 100 mM Tris-HCl, Ph7.4, 20 mM KCl, 6 mM MgCl2. […] Malachite green reagent was added to the reaction. […] The plate was read by an ELISA reader with an absorbance at 620 nm.

[2] = system: Her2; experiment: Degradation of Her2 in BT-474 cells (Method 1, Western blot); assay type: cell-based, Human; details: overnight, FIG. 2
Description: Human high-Her2 breast carcinoma BT474 (HTB-20), SK-BR-3 (HTB-30) and MCF-7 breast carcinoma (HTB-22) from American Type Culture Collection, Va., USA were grown in Dulbecco's modified Eagle's medium with 4 mM L-glutamine and antibiotics (100 IU/ml penicillin and 100 ug/ml streptomycine; GibcoBRL). To obtain exponential cell growth, cells were trypsinized, counted and seeded at a cell density of 0.5×10^6 cells/ml regularly, every 3 days. All experiments were performed on day 1 after cell passage.
BT-474 cells were treated with 0.5 μM, 2 μM, or 5 μM of 17AAG (a positive control) or 0.5 μM, 2 μM, or 5 μM of Compound 108 or Compound 49 overnight in DMEM medium. After treatment, each cytoplasmic sample was prepared from 1×10^6 cells by incubation of cell lysis buffer (#9803, cell Signaling Technology) on ice for 10 minutes. The resulting supernatant used as the cytosol fractions were dissolved with sample buffer for SDS-PAGE and run on a SDS-PAGE gel, blotted onto a nitrocellulose membrane by using semi-dry transfer. Non-specific binding to nitrocellulose was blocked with 5% skim milk in TBS with 0.5% Tween at room temperature for 1 hour, then probed with anti-Her2/ErB2 mAb (rabbit IgG, #2242, Cell Signaling) and anti-Tubulin (T9026, Sigma) as, housekeeping control protein. HRP-conjugated goat anti-rabbit IgG (H+L) and HRP-conjugated horse anti-mouse IgG (H+L) were used as secondary Ab (#7074, #7076, Cell Signaling) and LumiGLO reagent, 20× Peroxide (#7003, Cell Signaling) was used for visualization.

| SMILES | inhibition of ATPase activity of Hsp90 ([1]; 4 μM) | inhibition of ATPase activity of Hsp90 ([1]; 40 μM) | degradation of Her2 ([2]; 0.5 μM) | degradation of Her2 ([2]; 2 μM) | degradation of Her2 ([2]; 5 μM) |
| --- | --- | --- | --- | --- | --- |
| Oc1ccc(-c2nnc(S)n2-c2cccc3ccccc23)c(O)c1 [Compound 108, 3-(2,4-Dihydroxy-phenyl)-4-(naphthalen-1-yl)-5-mercapto-triazole] | significant inhibition | even greater inhibition of ATPase activity of Hsp90 than geldanamycin | partially degradated | partially degradated | almost completely degraded |
| CCc1cc(-c2nnc(S)n2-c2cccc3ccccc23)c(O)cc1O [Compound 49, 3-(2,4-Dihydroxy-5-ethyl-phenyl)-4-(naphthalen-1-yl)-5-mercapto-triazole] | – | – | partial degradated | complete degradation | complete degradation |
